The target in assay [1] is T1, Protein skinhead-1 (Caenorhabditis elegans, UniProt P34707).
T1 sequence (P34707 whole entry): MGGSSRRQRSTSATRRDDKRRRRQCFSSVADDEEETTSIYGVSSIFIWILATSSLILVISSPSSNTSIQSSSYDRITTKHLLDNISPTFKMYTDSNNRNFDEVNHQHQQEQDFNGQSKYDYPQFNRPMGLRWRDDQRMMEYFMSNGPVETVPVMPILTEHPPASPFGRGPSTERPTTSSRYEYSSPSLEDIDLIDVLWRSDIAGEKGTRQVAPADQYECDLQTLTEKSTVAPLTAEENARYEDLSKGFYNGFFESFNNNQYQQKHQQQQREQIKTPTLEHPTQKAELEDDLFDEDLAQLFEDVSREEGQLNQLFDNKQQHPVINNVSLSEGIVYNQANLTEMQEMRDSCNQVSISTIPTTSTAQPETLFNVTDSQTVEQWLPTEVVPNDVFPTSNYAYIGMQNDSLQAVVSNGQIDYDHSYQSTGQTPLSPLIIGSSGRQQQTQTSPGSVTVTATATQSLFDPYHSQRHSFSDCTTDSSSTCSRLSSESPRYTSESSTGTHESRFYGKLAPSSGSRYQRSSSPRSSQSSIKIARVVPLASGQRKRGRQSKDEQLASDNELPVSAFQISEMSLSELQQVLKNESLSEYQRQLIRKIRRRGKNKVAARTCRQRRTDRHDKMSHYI
Type of assay: functional.

Assay [2] in a line: Shn3 3'UTR reporter inhibitors, dose response, cell-based, Clone20 osteoblasts, firefly luciferase, cherry-picked (AID 624132).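 Note: firefly luciferase luminescence from reporter carrying the Shn3 3'UTR in osteoblasts.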 The assay is classed as functional.
Assay [3] in a line: inhibitors of control Renilla luciferase reporter, dose response, counter-screen for Shn3 3'UTR targeting project, Clone20-Shn3RL cells, dual-Glo, cherry-pick, set 2 (AID 720724). Type of assay: functional, cell-based. The note with it: Dual-Go Shn3RL.
A short description of assay [4]: control 3'UTR Renilla luciferase suppression, dose response, counter-screen for Shn3 inhibitor project, cell-based, Clone20-Shn3RL, cherry-picked (AID 624133). Type of assay: functional.
A short description of assay [5]: reduction of Shn3 3'UTR firefly luciferase signal, dose response, Schnurri-3 inhibitor project, cell-based, Clone20 osteoblasts, cherry-pick, set 2 (AID 720490).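 Note: actives lower the luminescence signal as inhibitors.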 Type of assay: functional.
The subject of assay [6] is Vero. The assay can be described thus: cells. The assay is classed as functional. The settings on record: Chlorocebus sabaeus.
The nature of assay [7]: inhibitors of non-replicating M. tuberculosis, dose response, luciferase, dry powder (AID 651620). The settings on record: Mycobacterium tuberculosis. The assay is classed as functional.
Assay [8] in a line: growth inhibition of replicating M. tuberculosis, dose response, counter-screen, dry powder, IC90 (AID 651617). Type of assay: functional. The settings on record: Mycobacterium tuberculosis. (A counterscreen serves to expose hits that act by an unwanted route or on another target.)
Assay [9] in a line: inhibitors of non-replicating M. tuberculosis, dose response, luciferase, dry powder (AID 651619). The note with it: Mycobacterium tuberculosis. Type of assay: functional.
Assay [10] deals with NAD-dependent protein deacylase sirtuin-5, mitochondrial (Homo sapiens, UniProt Q9NXA8). The assay can be described thus: SIRT5 desuccinylase inhibitors, dose response, biochemical, fluorescence imaging, cherry-pick, set 5 (AID 720591).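 Note: desuccinylation of succinyl peptide AMC substrate read as fluorescence after trypsin release; potency of inhibitors that lower fluorescence and may act on trypsin instead.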
Sequence of NAD-dependent protein deacylase sirtuin-5, mitochondrial (Q9NXA8 whole entry): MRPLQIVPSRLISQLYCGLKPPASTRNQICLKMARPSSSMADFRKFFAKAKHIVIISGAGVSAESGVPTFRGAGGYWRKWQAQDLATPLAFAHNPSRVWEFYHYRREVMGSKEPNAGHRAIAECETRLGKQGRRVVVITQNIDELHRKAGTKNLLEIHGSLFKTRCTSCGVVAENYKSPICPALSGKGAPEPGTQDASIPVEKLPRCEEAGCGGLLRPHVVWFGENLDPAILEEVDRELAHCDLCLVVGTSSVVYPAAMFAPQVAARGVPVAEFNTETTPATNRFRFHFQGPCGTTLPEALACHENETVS
A short description of assay [11]: A Cell-Based Confirmatory Screen for Compounds that Inhibit VEEV, TC-83 (5). The assay is classed as functional.
The target of assay [12] is RNA-editing ligase 1, mitochondrial (Trypanosoma brucei brucei, UniProt P86926). The assay can be described thus: TbREL1 ligase inhibitors, dose response, biochemical, fluorescence, Trypanosoma brucei (AID 1117295). The assay is classed as functional.
Sequence of RNA-editing ligase 1, mitochondrial (P86926 whole entry): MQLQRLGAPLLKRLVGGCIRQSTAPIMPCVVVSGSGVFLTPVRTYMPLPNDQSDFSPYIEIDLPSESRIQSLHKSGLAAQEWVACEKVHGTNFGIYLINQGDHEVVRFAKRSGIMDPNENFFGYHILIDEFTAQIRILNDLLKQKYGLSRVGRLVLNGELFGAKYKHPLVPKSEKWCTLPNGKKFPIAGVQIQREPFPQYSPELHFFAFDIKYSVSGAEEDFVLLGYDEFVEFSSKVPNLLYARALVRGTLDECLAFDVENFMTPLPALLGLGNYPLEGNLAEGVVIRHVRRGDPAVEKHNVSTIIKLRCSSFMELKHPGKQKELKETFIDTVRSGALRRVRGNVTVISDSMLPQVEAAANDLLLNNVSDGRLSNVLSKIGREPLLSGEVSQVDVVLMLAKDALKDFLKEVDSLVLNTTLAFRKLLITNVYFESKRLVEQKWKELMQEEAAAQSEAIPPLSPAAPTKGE
In assay [13] the target is Transthyretin (Homo sapiens, UniProt P02766). The assay can be described thus: Luminescence-based cell-based high throughput dose response assay to identify activators of Transthyretin (TTR) transcription. Type of assay: functional.
Assay [14] is described as follows: inhibitors of HIV Env-driven cell fusion, dose response, cherry-pick (AID 652057). Type of assay: functional, cell-based.
Assay [15] is described as follows: ZM109 Env clade C HIV-1 fusion inhibitors, dose response, HeLa effector, CEM target cells, luciferase, cherry-pick (AID 652058). The assay is classed as functional, cell-based.
The nature of assay [16]: off-target signal loss in HeLa-CEM21 co-culture – HeLa F-luc CTL cells, cherry-picked, counter-screen for HIV-1 Env fusion inhibitor project, dose response (AID 652040).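 Note: potency for signal decrease marking cytotoxic or nonspecific inhibition.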 Type of assay: functional, cell-based.
The nature of assay [17]: cells. Type of assay: functional, cell-based. The note with it: HEK-CNG.
Assay [18] in a line: inhibitors of clade B AD8 Env fusion, dose response, cell-based, cherry-pick (AID 652062).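 Note: luciferase signal from cell-cell fusion driven by HIV-1 clade B AD8 Env; potency is for inhibitors of fusion seen as a drop in luminescence.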 Type of assay: functional.
Assay [19] can be described thus: HepG2 cell cytotoxicity, dose response, cytotoxicity control for Shn3 inhibitor project, CellTiter-Glo, cherry-picked (AID 624134). The assay is classed as functional, cell-based. For orientation: Cellular ATP, detected with luciferase, serves as a proxy for viable cell number.
Assay [20] addresses COUP transcription factor 2 (Homo sapiens, UniProt P24468). The assay can be described thus: Luminescence-based cell-based high throughput dose response assay to identify inhibitors of COUP-TFII (NR2F2). The assay is classed as functional.
Assay [21] addresses Galanin receptor type 3 (Homo sapiens, UniProt O60755). The assay can be described thus: Fluorescence-based cell-based primary high throughput dose response assay to identify antagonists of the Galanin Receptor 3 (GalR3). The assay is classed as functional.
The subject of assay [22] is HEK293. The assay can be described thus: HEK293T cell cytotoxicity, dose response, cytotoxicity control, ATP luminescence, cherry-pick samples (AID 687005).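 Note: cells exposed to compound for 48 hours.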 Type of assay: functional, cell-based. The settings on record: Homo sapiens.
Assay [23] can be described thus: HEK293 Cytotoxicity Assay Measured in Cell-Based System Using Plate Reader - 7071-01_Inhibitor_Dose_CherryPick_Activity_Set2. The assay is classed as functional.

Results on eight compounds are retold here after ChEMBL document CHEMBL1201862, “PubChem BioAssay data set” (2004).

Molecules are shown by their SMILES. The source made the active and inactive calls. A value given as a limit tells only on which side of the number the result lay.

Sequence of Galanin receptor type 3 (O60755 whole entry): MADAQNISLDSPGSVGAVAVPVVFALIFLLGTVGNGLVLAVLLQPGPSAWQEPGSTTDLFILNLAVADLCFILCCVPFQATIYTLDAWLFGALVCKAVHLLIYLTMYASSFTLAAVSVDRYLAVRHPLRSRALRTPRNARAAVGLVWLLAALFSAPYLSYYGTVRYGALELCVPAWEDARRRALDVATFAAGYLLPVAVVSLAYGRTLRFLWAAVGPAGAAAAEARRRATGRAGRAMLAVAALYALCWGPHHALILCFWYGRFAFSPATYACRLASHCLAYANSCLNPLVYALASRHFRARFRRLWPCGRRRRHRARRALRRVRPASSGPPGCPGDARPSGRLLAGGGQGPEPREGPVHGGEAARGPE
Sequence of COUP transcription factor 2 (P24468 whole entry): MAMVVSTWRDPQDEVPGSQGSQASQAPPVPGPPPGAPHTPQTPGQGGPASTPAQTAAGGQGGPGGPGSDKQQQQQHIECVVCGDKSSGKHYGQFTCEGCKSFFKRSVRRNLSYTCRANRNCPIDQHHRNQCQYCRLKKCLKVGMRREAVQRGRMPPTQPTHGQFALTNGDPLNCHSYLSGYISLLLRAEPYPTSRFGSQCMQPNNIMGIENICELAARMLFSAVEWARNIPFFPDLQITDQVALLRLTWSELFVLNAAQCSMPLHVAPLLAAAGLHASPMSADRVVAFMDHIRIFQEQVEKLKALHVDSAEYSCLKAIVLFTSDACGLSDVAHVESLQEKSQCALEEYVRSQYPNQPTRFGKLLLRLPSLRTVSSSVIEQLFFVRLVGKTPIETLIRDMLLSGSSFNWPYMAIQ

For `O=C(CSc1c2c(nc3ccc(Cl)cc13)CCCC2)NCc1ccco1`, the IC50 (as a rule, the concentration that inhibits the measured activity by half) in [1] is > 100 µM (inactive). For the same compound, the AC50 (in general, the concentration giving half of the maximal activity seen) in [2] is 5.71 µM (active); in [3] it was 44.7 µM (active); in [4], 31.2 µM (active); in assay [5], 8.55 µM (active). Moreover, in assay [6], the CC50 – broadly, the concentration at which the toxic effect on the cells reaches its halfway point – is > 25 µM (active).

Turning to `Cc1ccc(-c2nnc(SCc3ccccn3)o2)cc1`, the IC90 (commonly the point of the concentration-response curve where the effect stands at 90%) in assay [7] is 4 µM (active); in [8], 62 µM (active); in [9] it was 4 µM (active).

Turning to `CCN1CCN(C(=O)c2ccc(C(F)(F)F)cc2)CC1`, the AC50 in [10] is > 30 µM (inactive).

Consider `CCN1CCN(Cc2nc3ccc(I)cc3c(=O)n2-c2ccccc2)CC1`, for which, in assay [11], the IC50 is 17.1 µM (active).

In the case of `COC(=O)C1=C(C)N(Cc2ccccc2C(F)(F)F)C(NCc2ccc(OC)cc2)=NC1c1ccc(Cl)cc1` (stereo not given), the IC50 in assay [12] is > 96.6 µM (inactive).

Take `Oc1cc(O)c2sc(Nc3ccc(Cl)c(F)c3)nc2n1`: the EC50 (usually the concentration needed to bring the measured effect to its halfway point) in [13] was > 167 µM (inactive).

Take `c1ccc(CNc2ncnc3ccccc23)cc1`: the AC50 in assay [14] is 10.7 µM (active); in assay [15] it was 3.66 µM (active); in [16] it was 15 µM (active); in [18] it was 4.91 µM (active); in assay [2], 1.5 µM (active); in assay [19], 5.24 µM (active). Besides, the AC50 in assay [4] was 18.9 µM (active). In [17], the EC50 is > 29.9 µM (inactive). The IC50 in assay [20] was 9.32 µM (active); in assay [21] it was 1.25 µM (active).

As to `O=C(Nc1ccccc1)N1CCCCN2[C@H](C1)[C@H](c1ccc(C#CC3CC3)cc1)[C@@H]2CO`, the AC50 in assay [22] and in assay [23] was 40.1 µM (active) in each case.
